Test results taken from US7829665B2 (priority 2005, dated 2010).
Like-named read-outs stand apart in the source and are kept apart here.

How the values were obtained:
[1] = target: T1, full-length NS3/NS4A-2 (HCV NS3 protease) (Hepatitis C virus genotype 1a, UniProt P27958); experiment: NS3-NS4 protease assay / NS3 inhibition assay (RETS1 substrate, fluorescence kinetic read); assay type: biochemical
T1 construct: Recombinant E. coli or Baculovirus full-length NS3 was diluted to 3.33 μM with assay buffer; made in house; host or cells: E. coli or baculovirus (BV) expression system
T1 sequence (P27958 1027-1657): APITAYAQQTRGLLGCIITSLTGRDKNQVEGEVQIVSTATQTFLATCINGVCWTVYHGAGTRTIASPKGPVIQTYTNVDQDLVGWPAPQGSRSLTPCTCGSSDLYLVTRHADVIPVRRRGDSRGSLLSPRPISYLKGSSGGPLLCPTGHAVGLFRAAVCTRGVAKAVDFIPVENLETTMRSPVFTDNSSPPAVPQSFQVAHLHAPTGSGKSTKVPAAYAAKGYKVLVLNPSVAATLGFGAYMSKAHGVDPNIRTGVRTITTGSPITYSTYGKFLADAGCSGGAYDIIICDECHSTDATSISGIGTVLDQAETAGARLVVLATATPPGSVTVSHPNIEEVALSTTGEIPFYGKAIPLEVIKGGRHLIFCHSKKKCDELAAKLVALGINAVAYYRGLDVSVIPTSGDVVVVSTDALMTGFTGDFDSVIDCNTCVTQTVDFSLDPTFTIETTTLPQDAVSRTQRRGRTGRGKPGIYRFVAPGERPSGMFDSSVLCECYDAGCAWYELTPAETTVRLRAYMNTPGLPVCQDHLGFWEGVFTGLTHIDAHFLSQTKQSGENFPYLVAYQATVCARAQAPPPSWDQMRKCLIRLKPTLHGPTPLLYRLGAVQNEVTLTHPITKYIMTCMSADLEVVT
Method in brief: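 Full-length NS3 from E. coli (2 nM in assay) or baculovirus (3 nM) was precomplexed with excess NS4A-2 peptide, then preincubated 10 min at room temperature with serially diluted compounds starting at 50 microM. Reaction was started with RETS1 substrate at 8 μM before addition and read kinetically for 30 min (ex 335/em 495 nm). Four-parameter IC50s were converted to Ki by Cheng-Prusoff using Km 2.03 μM (E. coli) or 1.74 μM (BV).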

[2] = test system: HCV sub-genomic replicon in GS4.3 cells (HuH-7 hepatoma cells); experiment: Quantitation by ELISA of Neomycin phosphotransferase II (NPTII) in the HCV sub-genomic replicon, GS4.3; assay type: cell-based, hepatitis C virus
Experimental: The HCV sub-genomic replicon (1377/NS3-3′, accession No. AJ242652), stably maintained in HuH-7 hepatoma cells, was created by Lohmann et al. Science 285: 110-113 (1999). The replicon-containing cell culture, designated GS4.3, was obtained from Dr. Christoph Seeger of the Institute for Cancer Research, Fox Chase Cancer Center, Philadelphia, Pa.
GS4.3 cells were maintained at 37° C., 5% CO2, in DMEM (Gibco 11965-092) supplemented with L-glutamine 200 mM (100×) (Gibco25030-081), non-essential amino acids (NEAA) (Biowhittaker 13-114E), heat-inactivated (HI) Fetal Bovine Serum (FBS) (Hyclone SH3007.03) and 750 μg/ml geneticin (G418) (Gibco 10131-035). Cells were sub-divided 1:3 or 4 every 2-3 days.
24 h prior to the assay, GS4.3 cells were collected, counted, and plated in 96-well plates (Costar 3585) at 7500 cells/well in 100 μl standard maintenance medium (above) and incubated in the conditions above. To initiate the assay, culture medium was removed, cells were washed once with PBS (Gibco 10010-023) and 90 μl Assay Medium (DMEM, L-glutamine, NEAA, 10% HI FBS, no G418) was added. Inhibitors were made as a 10× stock in Assay Medium, (3-fold dilutions from 10 μM to 56 pM final concentration, final DMSO concentration 1%), 10 μl were added to duplicate wells, plates were rocked to mix, and incubated as above for 72 h.
An NPTII Elisa kit was obtained from AGDIA, Inc. (Compound direct ELISA test system for Neomycin Phosphotransferase II, PSP 73000/4800). Manufacturer's instructions were followed, with some modifications. 10×PEB-1 lysis buffer was made up to include 500 μM PMSF (Sigma P7626, 50 mM stock in isopropanol). After 72 h incubation, cells were washed once with PBS and 150 μl PEB-1 with PMSF was added per well. Plates were agitated vigorously for 15 minutes, room temperature, then frozen at −70° C. Plates were thawed, lysates were mixed thoroughly, and 100 μl were applied to an NPTII Elisa plate. A standard curve was made. Lysate from DMSO-treated control cells was pooled, serially diluted with PEB-1 with PMSF, and applied to duplicate wells of the ELISA plate, in a range of initial lysate amount of 150 ul-2.5 ul. In addition, 100 μl buffer alone was applied in duplicate as a blank. Plates were sealed and gently agitated at room temperature for 2 h. Following capture incubation, the plates were washed 5×300 μl with PBS-T (0.5% Tween-20, PBS-T was supplied in the ELISA kit). For detection, a 1× dilution of enzyme conjugate diluent MRS-2 (5×) was made in PBS-T, into which 1:100 dilutions of enzyme conjugates A and B were added, as per instructions. Plates were resealed, and incubated with agitation, covered, room temperature, for 2 h. The washing was then repeated and 100 μl of room temperature TMB substrate was added. After approximately 30 minutes incubation (room temperature, agitation, covered), the reaction was stopped with 50 μl 3M sulfuric acid. Plates were read at 450 nm on a Molecular Devices Versamax plate reader.
Inhibitor effect was expressed as a percentage of DMSO-treated control signal, and inhibition curves were calculated using a 4-parameter equation: y=A+((B−A)/(1+((C/x)^D))), where C is half-maximal activity or EC50.

[3] = recombinant E. coli or Baculovirus full-length NS3 with NS4A-2, read-out: NS3-NS4 IC50
[4] = Hepatitis C virus, Huh-7, GS4.3 cells, 72 h incubation, NPTII ELISA, read-out: Replicon EC50

## CC(C)(C)OC(=O)N[C@H]1CCCCCCC[C@@H]2C[C@@]2(C(=O)NS(=O)(=O)C2CC2)NC(=O)[C@@H]2C[C@@H](OC(=O)N3Cc4cccc(F)c4C3)CN2C1=O [Compound 268]
[1]; [3]
  IC50: < 100 nM
[2]; [4]
  EC50: < 100 nM

## N#CNC(=O)[C@@]12C[C@H]1/C=C\CCCCC[C@H](NC(=O)C1CC1)C(=O)N1C[C@H](OC(=O)N3Cc4cccc(F)c4C3)CC1C(=O)N2 (some centres unmarked) [Compound 638]
[1]; [3]
  IC50: < 1000 nM
[2]; [4]
  EC50: > 10000 nM

## CC(C)(C)CNC(=O)[C@@]12C[C@H]1/C=C\CCCCC[C@H](NC(=O)OC(C)(C)C)C(=O)N1C[C@H](OC(=O)N3Cc4cccc(F)c4C3)C[C@H]1C(=O)N2 [Compound 616]
[1]; [3]
  IC50: < 1000 nM
[2]; [4]
  EC50: < 1000 nM

## CC(C)(C)OC(=O)N[C@H]1CCOCC/C=C\[C@@H]2C[C@@]2(C(=O)NS(=O)(=O)C2CC2)NC(=O)[C@@H]2C[C@@H](OC(=O)N3Cc4cccc(F)c4C3)CN2C1=O [Compound 1027, (2R,6S,13aS,14aR,16aS,Z)-6-(tert-butoxycarbonylamino)-14a-(cyclopropylsulfonylcarbamoyl)-5,16-dioxo-2,3,5,6,7,8,10,11,13a,14,14a,15,16,16a-tetradecahydro-1H-cyclopropa(j)pyrrolo[1,2-f][1,6,9]oxadiazacyclopentadecin-2-yl 4-fluoroisoindoline-2-carboxylate]
[1]
  IC50: < 100 nM
[2]; [4]
  EC50: < 100 nM

## CNC(=O)NC(=O)[C@@]12C[C@H]1/C=C\CCCCC[C@H](NC(=O)OC(C)(C)C)C(=O)N1C[C@H](OC(=O)N3Cc4ccccc4C3)C[C@H]1C(=O)N2 [Compound 702]
[1]; [3]
  IC50: < 1000 nM
[2]; [4]
  EC50: < 1000 nM

## N[C@H]1CCC(F)(F)CC/C=C\[C@@H]2C[C@@]2(C(=O)NS(=O)(=O)C2CC2)NC(=O)[C@@H]2C[C@@H](OC(=O)N3Cc4ccccc4C3)CN2C1=O [Compound 1011]
[1]; [3]
  IC50: < 100 nM
[2]; [4]
  EC50: < 1000 nM

## O=C(N[C@H]1CCCCC/C=C\[C@@H]2C[C@@]2(C(=O)NS(=O)(=O)N2CCC(F)(F)C2)NC(=O)[C@@H]2C[C@@H](OC(=O)N3Cc4cccc(F)c4C3)CN2C1=O)OC1CCCC1 [Compound 225]
[1]; [3]
  IC50: < 100 nM
[2]; [4]
  EC50: < 100 nM

## N[C@H]1CCCCC/C=C\[C@@H]2C[C@@]2(C(=O)NS(=O)(=O)C2(Cc3ccccc3)CC2)NC(=O)[C@@H]2C[C@@H](OC(=O)N3Cc4cccc(Cl)c4C3)CN2C1=O [Compound 163]
[1]
  IC50: < 100 nM
[2]; [4]
  EC50: < 10000 nM

## CCC(C)(C)Nc1c(N[C@H]2CCCCC/C=C\[C@@H]3C[C@@]3(C(=O)NS(=O)(=O)C3CC3)NC(=O)[C@@H]3C[C@@H](OC(=O)N4Cc5cccc(F)c5C4)CN3C2=O)c(=O)c1=O [Compound 194]
[1]; [3]
  IC50: < 100 nM
[2]; [4]
  EC50: < 10000 nM

## CC[C@@H]1C[C@H]2C(=O)N[C@]3(C(=O)NS(=O)(=O)C4CC4)C[C@H]3/C=C\CCCCC[C@H](NC(=O)C3CC3)C(=O)N2C1 [Compound 318]
[1]; [3]
  IC50: < 1000 nM
[2]; [4]
  EC50: > 10000 nM

## CC(C)(C)OC(=O)N[C@H]1CCCCC/C=C\[C@@H]2C[C@@]2(C(=O)NS(=O)(=O)N2CCC(F)(F)C2)NC(=O)[C@@H]2C[C@@H](OC(=O)N3Cc4cccc(Cl)c4C3)CN2C1=O [Compound 211]
[1]; [3]
  IC50: < 100 nM
[2]; [4]
  EC50: < 100 nM

## O=C(N[C@H]1CCCCC/C=C\[C@@H]2C[C@@]2(C(=O)O)NC(=O)C2C[C@@H](OC(=O)N3Cc4cccc(F)c4C3)CN2C1=O)c1cnccn1 (some centres unmarked) [Compound 181]
[1]; [3]
  IC50: < 1000 nM
[2]; [4]
  EC50: < 10000 nM

## O=C(N[C@H]1CCCCC/C=C\[C@@H]2C[C@@]2(C(=O)NCC2CC2)NC(=O)[C@@H]2C[C@@H](OC(=O)N3CCc4ccccc4C3)CN2C1=O)OC1CCCC1 [Compound 644]
[1]; [3]
  IC50: < 100 nM
[2]; [4]
  EC50: < 1000 nM

## O=C(CCC(F)(F)F)N[C@H]1CCCCC/C=C\[C@@H]2C[C@@]2(C(=O)NS(=O)(=O)C2CC2)NC(=O)[C@@H]2C[C@@H](OC(=O)N3Cc4cccc(Cl)c4C3)CN2C1=O [Compound 143]
[1]; [3]
  IC50: < 100 nM
[2]; [4]
  EC50: < 100 nM

## O=C(N[C@H]1CCCCC/C=C\[C@@H]2C[C@@]2(C(=O)NS(=O)(=O)N2CCC2)NC(=O)[C@@H]2C[C@@H](OC(=O)N3CCc4ccccc4C3)CN2C1=O)OC1CCCC1 [Compound 233]
[1]; [3]
  IC50: < 100 nM
[2]; [4]
  EC50: < 100 nM

## O=C(N[C@H]1CCCCC/C=C\[C@@H]2C[C@@]2(C(=O)O)NC(=O)[C@@H]2C[C@@H](OC(=O)N3Cc4cccc(Cl)c4C3)CN2C1=O)OC1CCCC1 [Compound 138]
[1]; [3]
  IC50: < 100 nM
[2]; [4]
  EC50: < 1000 nM

## O=C(CCC(F)(F)F)N[C@H]1CCCCC/C=C\[C@@H]2C[C@@]2(C(=O)O)NC(=O)[C@@H]2C[C@@H](OC(=O)N3Cc4cccc(F)c4C3)CN2C1=O [Compound 135]
[1]; [3]
  IC50: < 100 nM
[2]; [4]
  EC50: < 10000 nM

## O=C(N[C@H]1CCCCC/C=C\[C@@H]2C[C@@]2(C(=O)NS(=O)(=O)c2cc(Cl)sc2Cl)NC(=O)[C@@H]2C[C@@H](OC(=O)N3Cc4cccc(Cl)c4C3)CN2C1=O)OC1CCCC1 [Compound 174]
[1]; [3]
  IC50: < 100 nM
[2]; [4]
  EC50: < 100 nM

## O=C1N[C@]2(C(=O)NS(=O)(=O)C3CC3)C[C@H]2/C=C\CCCCC[C@H](N(CC2CC2)CC2CC2)C(=O)N2C[C@H](OC(=O)N3Cc4cccc(F)c4C3)C[C@@H]12 [Compound 911]
[1]; [3]
  IC50: < 1000 nM
[2]; [4]
  EC50: < 10000 nM

## O=C(N[C@H]1CCCCC/C=C\[C@@H]2C[C@@]2(C(=O)NS(=O)(=O)N2CC(F)(F)C2)NC(=O)C2C[C@@H](OC(=O)N3Cc4ccccc4C3)CN2C1=O)OC1CCCC1 (some centres unmarked) [Compound 230]
[1]; [3]
  IC50: < 100 nM
[2]; [4]
  EC50: < 1000 nM

## CCOC1(S(=O)(=O)NC(=O)[C@@]23C[C@H]2/C=C\CCCCC[C@H](NC(=O)OC(C)(C)C)C(=O)N2C[C@H](OC(=O)N4Cc5cccc(Cl)c5C4)C[C@H]2C(=O)N3)CC1 [Compound 165]
[1]; [3]
  IC50: < 100 nM
[2]; [4]
  EC50: < 100 nM

## CC(C)(C)OC(=O)N[C@H]1CCCCC/C=C\[C@@H]2C[C@@]2(C(=O)NC#N)NC(=O)C2C[C@@H](OC(=O)N3Cc4cccc(Cl)c4C3)CN2C1=O (some centres unmarked) [Compound 641]
[1]; [3]
  IC50: < 100 nM
[2]; [4]
  EC50: < 10000 nM

## O=C(N[C@H]1CCCCC/C=C\[C@@H]2C[C@@]2(C(=O)O)NC(=O)[C@@H]2C[C@@H](OC(=O)N3Cc4cccc(F)c4C3)CN2C1=O)C1CCC1 [Compound 122]
[1]; [3]
  IC50: < 100 nM
[2]; [4]
  EC50: < 10000 nM

## (1S,4R,6S,14S) tert-butyl 4-Cyclopropanesulfonylaminocarbonyl-2,15-dioxo-3,16-diaza-tricyclo[14.3.0.0^4,6]nonadec-7-ene-14-yl carbamate [Compound 2137]
[1]; [3]
  IC50: > 10000 nM
[2]; Table 26, read-out: EC50
  EC50: > 10000 nM

## O=C1N[C@]2(C(=O)NS(=O)(=O)C3CC3)C[C@H]2/C=C\CCCCC[C@H](NCc2ccc(F)c(F)c2)C(=O)N2C[C@H](OC(=O)N3Cc4cccc(F)c4C3)C[C@@H]12 [Compound 904]
[1]; [3]
  IC50: < 100 nM
[2]; [4]
  EC50: < 100 nM
